In patent publication EP0981362B1, “USE OF GLP-2 AGONISTS ENHANCING F[…] THE UPPER GASTROINTESTINAL TRACT” (1149336 ONTARIO INC., priority 1997, dated 1998):

Tested on: female CD1 mice
Test: Indomethacin-induced mortality in mice (model dose)
Type: in vivo
Details: indomethacin 7 mg/kg s.c. bid for two days following overnight fasting; 7-8 week old female CD1 mice; saline-treated control animals
Experimental: Indomethacin(1-[p-chlorobenzoyl]-5-methoxy-2-methylindole-3-acetic acic) (Sigma Chemical Co., St Louis MO, lot 74H1212), stock solution was prepared and aliquoted 1 hr before the first injection. The mice were weighed, and then fasted overnight, and given food one hour prior to the first indomethacin injection. Mice were not fasted for the second indomethacin injection. Indomethacin (14.5 mg) was weighed out using a Mettler AE166 scale and dissolved in 1 mL anhydrous ethyl alcohol. The solution was warmed at 37° C for 5 minutes and thoroughly vortexed every minute until fully dissolved. 998.1 uL of stock indomethacin solution was diluted in 41 ml 5% NaHCO3 pH 7.3. […] Indomethacin used in the second injection was stored at -20° C overnight and allowed to thaw at room temperature prior to injection. Mice were injected at the same time (10:00 AM) on both days approximately 1 hr after receiving h[Gly^2]-GLP-2. Animals not receiving indomethacin were administered vehicle alone (250 µl anhydrous ethyl alcohol in 10.5 mL NaHCO3 pH 7.3 - a final injection volume of 0.5 ml was given daily over 2 days). Animals were sacrificed in a CO2 chamber 14 days following the administration of either PBS or h[Gly^2]-GLP-2.
Pilot experiments were performed to determine an indomethacin dose that reproducibly produced ∼ 50% mortality in mice. […]

COc1ccc2c(c1)c(CC(=O)O)c(C)n2C(=O)c1ccc(Cl)cc1 [indomethacin, 1-[p-chlorobenzoyl]-5-methoxy-2-methylindole-3-acetic acic]
mortality: 50%
